Earlier results in patent US20140080846A1, “Method of treating orphan respiratry diseases using doxofylline” (priority 2012, published 2014).

Tests used:
[1] = for subjects dropped out of the study due to side effects: large randomized clinical study, 12 week testing period, asthma patients
[2] = intravenous, CF patients

Which “efficacy in treating chronic asthma” value ([1]; compared to theophylline) does the source give for Cn1c(=O)c2c(ncn2CC2OCCO2)n(C)c1=O [doxofylline, 7-(1,3-dioxolan-2-ylmethyl)-1,3-dimethylpurine-2,6-dione] here?
The value was “as effective as theophylline”.

And the “subjects dropped out of the study due to side effects” value [1]?
The value was 11%.

With Cn1c(=O)c2[nH]cnc2n(C)c1=O [theophylline] as the compound, how does the “effect on Forced Expiratory Volume at 1 second (FEV1) and Forced Expiratory Flow at 0.75 seconds (FEF 0.75)” value [2] read?
The value was “positive results”.

What about the “subjects dropped out of the study due to side effects” value [1] of the same compound?
The value was 31%.

What about the “patients treated in an emergency setting for overdose who die” value of the same compound?
Its value is “Ten”.
